Test results published in US12534474B2, “Dihydrofuropyridine derivatives as rho-kinase inhibitors” (CHIESI FARMACEUTICI S.P.A., priority 2020, dated 2026).

Columns and labels:
Assay type in all cases: biochemical
ROCK1 [1] = molecular target: T1, ROCK1 (Homo sapiens, UniProt Q13464); experiment: In vitro Rho kinase inhibitory activity assay, ADP-Glo, Method A (ATP 10 μM); settings: read-out: Method A ROCK 1 (Ki)
Description: (§1) In Vitro Inhibitory Activity Assay Description (Method A)
(§2) The effectiveness of compounds of the present invention to inhibit Rho kinase activity can be determined in a 10 μL assay containing 40 mM Tris pH7.5, 20 mM MgCl2 0.1 mg/mL BSA, 50 μM DTT and 2.5 μM peptide substrate (Myelin Basic Protein) using an ADP-Glo kit (Promega). Compounds were dissolved in DMSO such that the final concentration of DMSO was 1% in the assay. All reactions/incubations are performed at 25° C. Compound (2 μL) and either Rho kinase 1 or 2 (4 μL) were mixed and incubated for 30 min. Reactions were initiated by addition of ATP (4 μL) such that the final concentration of ATP in the assay was 10 μM. After a 1 hour incubation 10 μL of ADP-Glo Reagent was added and after a further 45 minute incubation 20 μL of Kinase Detection Buffer was added and the mixture incubated for a further 30 minutes. The luminescent signal was measured on a luminometer. […] Compounds were tested in dose-response format and the inhibition of kinase activity was calculated at each concentration of compound. To determine the IC50 (concentration of compound required to inhibit 50% of the enzyme activity) data were fit to a plot of % inhibition vs Log10 compound concentration using a sigmoidal fit with a variable slope and fixing the maximum to 100% and the minimum to 0%. To determine the Ki values the Cheng-Prusoff equation was utilized (Ki=IC50/(1+[S]/Km).

ROCK2 [2] = molecular target: T2, ROCK2 (Homo sapiens, UniProt O75116); experiment: as above; settings: read-out: Method A ROCK 2 (Ki)
T2 sequence (O75116 whole entry): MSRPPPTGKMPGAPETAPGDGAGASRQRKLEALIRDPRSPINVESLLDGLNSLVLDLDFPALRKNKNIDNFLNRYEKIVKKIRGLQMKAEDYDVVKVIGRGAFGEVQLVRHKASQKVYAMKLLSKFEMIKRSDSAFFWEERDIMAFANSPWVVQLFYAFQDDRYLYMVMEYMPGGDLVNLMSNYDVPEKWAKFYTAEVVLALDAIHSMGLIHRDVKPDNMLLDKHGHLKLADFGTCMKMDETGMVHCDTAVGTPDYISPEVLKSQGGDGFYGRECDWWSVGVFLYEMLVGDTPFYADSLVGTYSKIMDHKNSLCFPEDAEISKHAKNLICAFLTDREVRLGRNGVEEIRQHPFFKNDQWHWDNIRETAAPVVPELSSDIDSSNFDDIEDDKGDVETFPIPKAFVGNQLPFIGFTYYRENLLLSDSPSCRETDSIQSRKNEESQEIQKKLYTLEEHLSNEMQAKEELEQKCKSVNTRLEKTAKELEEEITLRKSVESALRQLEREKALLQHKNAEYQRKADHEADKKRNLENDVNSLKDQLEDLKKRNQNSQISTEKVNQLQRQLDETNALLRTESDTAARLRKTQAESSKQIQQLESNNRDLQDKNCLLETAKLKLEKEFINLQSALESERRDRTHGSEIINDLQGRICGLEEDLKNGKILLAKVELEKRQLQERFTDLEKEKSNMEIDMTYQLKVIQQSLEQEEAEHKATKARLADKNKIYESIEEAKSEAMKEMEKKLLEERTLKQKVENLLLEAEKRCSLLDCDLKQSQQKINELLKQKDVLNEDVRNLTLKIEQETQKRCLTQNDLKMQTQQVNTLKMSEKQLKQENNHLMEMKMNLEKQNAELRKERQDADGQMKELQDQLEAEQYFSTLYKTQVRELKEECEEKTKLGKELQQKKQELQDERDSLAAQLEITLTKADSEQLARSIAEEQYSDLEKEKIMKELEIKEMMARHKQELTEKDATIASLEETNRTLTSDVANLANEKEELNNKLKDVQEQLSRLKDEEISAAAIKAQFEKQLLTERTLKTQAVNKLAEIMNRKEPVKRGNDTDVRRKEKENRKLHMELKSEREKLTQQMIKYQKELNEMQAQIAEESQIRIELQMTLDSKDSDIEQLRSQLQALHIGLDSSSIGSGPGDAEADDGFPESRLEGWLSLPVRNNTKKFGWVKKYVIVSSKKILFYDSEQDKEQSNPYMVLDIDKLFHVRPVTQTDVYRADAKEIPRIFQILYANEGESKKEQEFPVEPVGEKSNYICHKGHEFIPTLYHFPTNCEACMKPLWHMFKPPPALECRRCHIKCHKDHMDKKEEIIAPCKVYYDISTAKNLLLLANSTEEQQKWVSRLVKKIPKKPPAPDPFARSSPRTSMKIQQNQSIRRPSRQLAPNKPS
Description: as §1, §2

ROCK1 [3] = molecular target: T1, ROCK1; experiment: In vitro Rho kinase inhibitory activity assay, ADP-Glo, Method B (ATP 200 μM); settings: read-out: Method B ROCK 1 (Ki)
Description: (§3) In Vitro Inhibitory Activity Assay Description (Method B)
as §2, with “(2 ul)” for “(2 μL)”, “was 200” for “was 10”, “20 ul” for “20 μL”, “vs Log 10” for “vs Log10”

ROCK2 [4] = molecular target: T2, ROCK2; experiment: as above; settings: read-out: Method B ROCK 2 (Ki)
Description: as §3
as §2, with “(2 ul)” for “(2 μL)”, “was 200” for “was 10”, “20 ul” for “20 μL”, “vs Log 10” for “vs Log10”

PKA = PKA (Homo sapiens, UniProt P17612); experiment: In vitro inhibitory activity assay for PKA, ADP-Glo, reported as selectivity ratio vs ROCK2; settings: Ki for PKA divided by Ki of ROCK2 (Method B)
Description: In Vitro Inhibitory Activity Assay Description for PKA
The effectiveness of compounds of the present invention to inhibit PKA activity can be determined in a 10 μL assay containing 40 mM Tris pH7.5, 20 mM MgCl2 0.1 mg/mL BSA, 50 μM DTT and 260 μM peptide substrate (kemptide) using an ADP-Glo kit (Promega). Compounds were dissolved in DMSO such that the final concentration of DMSO was 1% in the assay. All reactions/incubations are performed at 25° C. Compound and PKA enzyme (6 μL) were mixed and incubated for 30 min. Reactions were initiated by addition of ATP (4 μL) such that the final concentration of ATP in the assay was 10 μM. After a 30 minute incubation 10 μL of ADP-Glo Reagent was added and after a further 1 hour incubation 20 μL of Kinase Detection Buffer was added and the mixture incubated for a further 45 minutes. The luminescent signal was measured on a luminometer. […] Compounds were tested in dose-response format and the inhibition of kinase activity was calculated at each concentration of compound. To determine the IC50 (concentration of compound required to inhibit 50% of the enzyme activity) data were fit to a plot of % inhibition vs Log10 compound concentration using a sigmoidal fit with a variable slope and fixing the maximum to 100% and the minimum to 0%. To determine the Ki values the Cheng-Prusoff equation was utilized (Ki=IC50/(1+[S]/Km).
In vitro inhibitory activities for PKA were reported as selectivity ratio vs. ROCK2. Selectivity ratio PKA/ROCK2 was calculated by dividing the Ki value for PKA by Ki value of ROCK2 (Method B) and reported into table 1.

T1 sequence (Q13464 whole entry): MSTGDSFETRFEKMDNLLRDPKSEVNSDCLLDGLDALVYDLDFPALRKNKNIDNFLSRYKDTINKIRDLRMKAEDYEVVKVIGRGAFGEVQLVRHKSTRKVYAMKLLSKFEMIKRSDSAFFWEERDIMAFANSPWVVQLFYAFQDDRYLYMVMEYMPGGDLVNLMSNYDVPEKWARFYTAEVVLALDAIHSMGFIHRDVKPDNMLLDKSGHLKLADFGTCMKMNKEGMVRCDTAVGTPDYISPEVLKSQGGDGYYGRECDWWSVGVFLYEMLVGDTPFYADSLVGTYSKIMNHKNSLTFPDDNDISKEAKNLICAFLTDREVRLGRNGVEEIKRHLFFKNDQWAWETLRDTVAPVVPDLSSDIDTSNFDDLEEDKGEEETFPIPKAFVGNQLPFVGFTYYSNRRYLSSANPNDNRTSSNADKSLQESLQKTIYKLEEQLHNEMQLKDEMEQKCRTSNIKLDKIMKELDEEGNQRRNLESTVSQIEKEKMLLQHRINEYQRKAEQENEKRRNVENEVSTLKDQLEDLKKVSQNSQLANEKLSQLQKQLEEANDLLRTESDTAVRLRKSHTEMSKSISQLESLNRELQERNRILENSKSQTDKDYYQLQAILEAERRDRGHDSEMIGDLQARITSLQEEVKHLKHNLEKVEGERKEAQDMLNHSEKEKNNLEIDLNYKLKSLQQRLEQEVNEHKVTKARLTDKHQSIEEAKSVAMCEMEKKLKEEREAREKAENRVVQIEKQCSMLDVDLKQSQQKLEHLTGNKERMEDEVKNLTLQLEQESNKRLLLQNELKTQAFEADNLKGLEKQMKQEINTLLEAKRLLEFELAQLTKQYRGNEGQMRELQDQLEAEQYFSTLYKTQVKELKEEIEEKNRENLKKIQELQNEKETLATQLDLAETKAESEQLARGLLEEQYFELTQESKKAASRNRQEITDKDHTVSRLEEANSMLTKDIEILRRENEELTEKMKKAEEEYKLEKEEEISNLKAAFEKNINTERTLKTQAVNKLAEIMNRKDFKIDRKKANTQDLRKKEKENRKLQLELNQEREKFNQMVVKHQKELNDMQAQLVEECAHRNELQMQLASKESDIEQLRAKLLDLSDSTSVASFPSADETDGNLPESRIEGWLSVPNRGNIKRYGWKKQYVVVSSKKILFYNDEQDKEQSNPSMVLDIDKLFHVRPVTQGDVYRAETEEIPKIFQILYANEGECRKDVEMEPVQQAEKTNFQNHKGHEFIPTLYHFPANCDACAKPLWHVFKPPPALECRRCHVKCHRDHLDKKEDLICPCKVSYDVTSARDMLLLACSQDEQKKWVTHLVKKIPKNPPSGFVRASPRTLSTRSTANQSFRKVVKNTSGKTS

Row | Ki (ROCK1 [1]) | Ki (ROCK2 [2]) | Ki (ROCK1 [3]) | Ki (ROCK2 [4]) | Ratio (PKA/ROCK2) (PKA) | Structure (SMILES)
1 | ≤ 3 nM | ≤ 3 nM |  |  |  | CN1CCc2nc(NC(=O)c3cccc(CNc4ncc(-c5ccncc5)c5c4CCO5)c3)sc2C1 [Example 23, N-(5-methyl-4,5,6,7-tetrahydrothiazolo[5,4-c]pyridin-2-yl)-3-(((7-(pyridin-4-yl)-2,3-dihydrofuro[3,2-c]pyridin-4-yl)amino)methyl)benzamide]
2 | ≤ 3 nM | ≤ 3 nM |  |  |  | O=C(N[C@H](CO)c1ccccc1)c1cccc(CNc2ncc(-c3ccncc3)c3c2CCO3)c1 [Example 24, (S)-N-(2-hydroxy-1-phenylethyl)-3-(((7-(pyridin-4-yl)-2,3-dihydrofuro[3,2-c]pyridin-4-yl)amino)methyl)benzamide]
3 | ≤ 3 nM | ≤ 3 nM |  |  |  | O=C(NCCc1ccncc1)c1cccc(CNc2ncc(-c3ccncc3)c3c2CCO3)c1 [Example 25, 3-(((7-(Pyridin-4-yl)-2,3-dihydrofuro[3,2-c]pyridin-4-yl)amino)methyl)-N-(2-(pyridin-4-yl)ethyl)benzamide]
4 | ≤ 3 nM | ≤ 3 nM |  |  |  | CN(C)Cc1cccc(NC(=O)c2cccc(CNc3ncc(-c4ccncc4)c4c3CCO4)c2)c1 [Example 26, N-(3-((dimethylamino)methyl)phenyl)-3-(((7-(pyridin-4-yl)-2,3-dihydrofuro[3,2-c]pyridin-4-yl)amino)methyl)benzamide]
5 | ≤ 3 nM | ≤ 3 nM |  |  |  | CN(C)Cc1cccc(CNC(=O)c2cccc(CNc3ncc(-c4ccncc4)c4c3CCO4)c2)c1 [Example 27, N-(3-((dimethylamino)methyl)benzyl)-3-(((7-(pyridin-4-yl)-2,3-dihydrofuro[3,2-c]pyridin-4-yl)amino)methyl)benzamide]
6 | ≤ 3 nM | ≤ 3 nM |  |  |  | O=C(NCCc1cccnc1)c1cccc(CNc2ncc(-c3ccncc3)c3c2CCO3)c1 [Example 29, N-(2-(pyridin-3-yl)ethyl)-3-(((7-(pyridin-4-yl)-2,3-dihydrofuro[3,2-c]pyridin-4-yl)amino)methyl)benzamide]
7 | 3 to 30 nM | 3 to 30 nM |  |  |  | CC1CCN(CCC(=O)Nc2cccc(CNc3ncc(-c4ccncc4)c4c3CCO4)c2)CC1 [Example 32, 3-(4-Methylpiperidin-1-yl)-N-(3-(((7-(pyridin-4-yl)-2,3-dihydrofuro[3,2-c]pyridin-4-yl)amino)methyl)phenyl)propanamide]
8 | 3 to 30 nM | 3 to 30 nM |  |  |  | O=C(Nc1cccc(CNc2ncc(-c3ccncc3)c3c2CCO3)c1)c1cccc(CN2CCOCC2)c1 [Example 33, 3-(morpholinomethyl)-N-(3-(((7-(pyridin-4-yl)-2,3-dihydrofuro[3,2-c]pyridin-4-yl)amino)methyl)phenyl)benzamide]
9 | ≤ 3 nM | ≤ 3 nM |  |  |  | CN1CCc2nc(C(=O)Nc3cccc(CNc4ncc(-c5ccncc5)c5c4CCO5)c3)sc2C1 [Example 34, 5-methyl-N-(3-(((7-(pyridin-4-yl)-2,3-dihydrofuro[3,2-c]pyridin-4-yl)amino)methyl)phenyl)-4,5,6,7-tetrahydrothiazolo[5,4-c]pyridine-2-carboxamide]
10 | ≤ 3 nM | ≤ 3 nM |  |  |  | Cn1ncc2cc(C(=O)Nc3cccc(CNc4ncc(-c5ccncc5)c5c4CCO5)c3)ccc21 [Example 37, 1-methyl-N-(3-(((7-(pyridin-4-yl)-2,3-dihydrofuro[3,2-c]pyridin-4-yl)amino)methyl)phenyl)-1H-indazole-5-carboxamide]
11 | ≤ 3 nM | ≤ 3 nM |  |  |  | O=C(Nc1cccc(CNc2ncc(-c3ccncc3)c3c2CCO3)c1)c1nc2c(s1)CN(C1COC1)CC2 [Example 38, 5-(oxetan-3-yl)-N-(3-(((7-(pyridin-4-yl)-2,3-dihydrofuro[3,2-c]pyridin-4-yl)amino)methyl)phenyl)-4,5,6,7-tetrahydrothiazolo[5,4-c]pyridine-2-carboxamide]
12 | ≤ 3 nM | ≤ 3 nM |  |  |  | CN(C)CCn1ccc2cc(C(=O)Nc3cccc(CNc4ncc(-c5ccncc5)c5c4CCO5)c3)ccc21 [Example 39, 1-(2-(dimethylamino)ethyl)-N-(3-(((7-(pyridin-4-yl)-2,3-dihydrofuro[3,2-c]pyridin-4-yl)amino)methyl)phenyl)-1H-indole-5-carboxamide]
13 |  |  | 3 to 30 nM | ≤ 3 nM | *** (ratio≥10) | CN(C)CCn1cc(C(=O)Nc2cccc(CNc3ncc(-c4ccncc4)c4c3CCO4)c2)cn1 [Example 41, 1-(2-(Dimethylamino)ethyl)-N-(3-(((7-(pyridin-4-yl)-2,3-dihydrofuro[3,2-c]pyridin-4-yl)amino)methyl)phenyl)-1H-pyrazole-4-carboxamide]
14 |  |  | ≤ 3 nM | ≤ 3 nM | *** (ratio≥10) | O=C(NCCC1CCN(C2COC2)CC1)c1cccc(CNc2ncc(-c3ccncc3)c3c2CCO3)c1 [Example 42, N-(2-(1-(Oxetan-3-yl)piperidin-4-yl)ethyl)-3-(((7-(pyridin-4-yl)-2,3-dihydrofuro[3,2-c]pyridin-4-yl)amino)methyl)benzamide]
15 |  |  | ≤ 3 nM | ≤ 3 nM | *** (ratio≥10) | CC(=O)N1CCC(CCNC(=O)c2cccc(CNc3ncc(-c4ccncc4)c4c3CCO4)c2)CC1 [Example 44, N-(2-(1-Acetylpiperidin-4-yl)ethyl)-3-(((7-(pyridin-4-yl)-2,3-dihydrofuro[3,2-c]pyridin-4-yl)amino)methyl)benzamide]
16 |  |  | 3 to 30 nM | 3 to 30 nM | *** (ratio≥10) | CNC(=O)c1cccc(CNc2ncc(-c3ccnc(N)c3F)c3c2CCO3)c1 [Example 46, 3-(((7-(2-Amino-3-fluoropyridin-4-yl)-2,3-dihydrofuro[3,2-c]pyridin-4-yl)amino)methyl)-N-methylbenzamide]
17 |  |  | ≤ 3 nM | ≤ 3 nM | *** (ratio≥10) | CN(C)CCOc1ccc(NC(=O)c2cccc(CNc3ncc(-c4ccncc4)c4c3CCO4)c2)nc1 [Example 56, N-(5-(2-(dimethylamino)ethoxy)pyridin-2-yl)-3-(((7-(pyridin-4-yl)-2,3-dihydrofuro[3,2-c]pyridin-4-yl)amino)methyl)benzamide]
18 |  |  | > 30 nM | > 30 nM | *** (ratio≥10) | CNC(=O)c1cccc(CNc2ncc(-c3cc[nH]c(=O)c3)c3c2CCO3)c1 [Example B, N-methyl-3-(((7-(2-oxo-1,2-dihydropyridin-4-yl)-2,3-dihydrofuro[3,2-c]pyridin-4-yl)amino)methyl)benzamide, reference compound]
19 |  |  | > 30 nM | > 30 nM | *** (ratio≥10) | CNC(=O)c1cccc(CNc2ncc(-c3ccncc3)c3c2OCC3)c1 [Example C, N-methyl-3-(((4-(pyridin-4-yl)-2,3-dihydrofuro[2,3-c]pyridin-7-yl)amino)methyl)benzamide, reference compound]
